In ChEMBL document CHEMBL5154907, “Discovery and Anti-Inflammatory Activity Evaluation of a Novel CDK8 Inhibitor through Upregulation of IL-10 for the Treatment of Inflammatory Bowel Disease In Vivo” (J Med Chem, 2022):
Calls of active or inactive are those of the source.

Columns and labels:
Mus musculus [1] = assay: Anti-inflammatory activity in DSS-induced C57BL/6 mouse model of inflammatory bowel disease assessed as increase in IL-10 expression in colon tissue at 5 to 20 mg/kg, po measured after 10 days by western blot analysis; type: functional, organism-based; conditions: dose 5-20 mg/kg, time 10.0 day
[2] = MRT in Sprague-Dawley rat at 5 mg/kg, iv measured for 3 to 1440 mins by HPLC analysis; type: ADME, organism-based; conditions: in vivo, time 3-1440 min
BMDC [3] = assay: Anti-inflammatory activity against R848 stimulated-mouse BMDC cells assessed as downregulation of IL-6 production by ELISA method; type: functional, cell-based
Mus musculus [4] = assay: Anti-inflammatory activity in C57BL/6 mouse model of inflammatory bowel disease assessed as suppression of DSS-induced NF-kappa-B p65 expression in colon tissue at 5 to 20 mg/kg, po measured after 10 days by western blot analysis; type: functional, organism-based; conditions: dose 5-20 mg/kg, time 10.0 day
[5] = target: c-Jun N-terminal kinase (Mus musculus) (UniProt Q91Y86+Q9WTU6+Q61831); assay: Inhibition of JNK phosphorylation in R848-stimulated mouse BMDC cells at 1 to 4 uM treated for 2 hrs followed by R848 stimulation for 12 hrs by western blot analysis; type: cell-based; conditions: dose 1-4 µM, time 14.0 hrs
Mus musculus [6] = assay: Anti-inflammatory activity in C57BL/6 mouse model of inflammatory bowel disease assessed as decrease in DSS-induced IL-6 levels in serum at 5 to 20 mg/kg, po daily measured after 10 days by ELISA method; type: functional, organism-based; conditions: dose 5-20 mg/kg, time 10.0 day
[7] = target: T1, Cyclin-dependent kinase 8 (Mus musculus) (UniProt Q8R3L8); assay: Inhibition of CDK8 in IFN-gamma-stimulated mouse BMDC cells assessed as STAT-1 phosphorylation at Ser727 at 1 to 4 uM treated for 2 hrs followed by IFN-gamma stimulation for 12 hrs by western blot analysis; type: cell-based; conditions: dose 1-4 µM, time 14.0 hrs
T1 sequence (whole entry): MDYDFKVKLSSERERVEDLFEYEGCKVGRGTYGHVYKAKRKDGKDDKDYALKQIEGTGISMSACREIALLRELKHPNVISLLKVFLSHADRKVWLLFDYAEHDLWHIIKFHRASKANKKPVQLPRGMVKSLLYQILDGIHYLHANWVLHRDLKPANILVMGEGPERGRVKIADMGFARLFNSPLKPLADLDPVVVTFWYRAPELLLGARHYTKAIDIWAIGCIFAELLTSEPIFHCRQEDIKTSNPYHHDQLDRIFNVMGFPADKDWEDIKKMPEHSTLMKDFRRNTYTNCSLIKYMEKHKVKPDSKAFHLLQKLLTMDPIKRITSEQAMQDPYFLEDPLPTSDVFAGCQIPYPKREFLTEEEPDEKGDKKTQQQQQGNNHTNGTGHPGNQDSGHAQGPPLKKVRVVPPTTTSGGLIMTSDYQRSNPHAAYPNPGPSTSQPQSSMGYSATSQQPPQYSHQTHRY

[8] = Cmax in Sprague-Dawley rat at 5 mg/kg, iv measured for 3 to 1440 mins by HPLC analysis; type: ADME, organism-based; conditions: in vivo
CDK8/Cyclin C = CDK8/Cyclin C (Homo sapiens, UniProt P49336); assay: Inhibition of recombinant full length His tagged human CDK8/Cyclin C expressed in Baculovirus incubated for 60 mins in presence of ATP by ADP-Glo kinase assay
Mus musculus [9] = assay: Anti-inflammatory activity in DSS-induced C57BL/6 mouse model of inflammatory bowel disease assessed as reduction in colitis development by measuring disease activity index score at 5 to 20 mg/kg, po administered measured after 7 days; type: functional, organism-based; conditions: dose 5-20 mg/kg, time 7.0 day, DDE = dose-dependent effect
[10] = Acute toxicity in 12 hr fasted ICR mouse assessed as effect on lung at 2000 mg/kg, po measured after 7 days by hematoxylin and eosin staining based histopathological analysis; type: organism-based; conditions: in vivo, 168 h, time 7 day
[11] = target: MAP kinase p38 (Mus musculus) (UniProt P47811+O08911+Q9WUI1+Q9Z1B7); assay: Inhibition of P38 phosphorylation in R848-stimulated mouse BMDC cells at 1 to 4 uM treated for 2 hrs followed by R848 stimulation for 12 hrs by western blot analysis; type: cell-based; conditions: dose 1-4 µM, time 14.0 hrs
[12] = Acute toxicity in 12 hr fasted ICR mouse assessed as toxic reaction at 2000 mg/kg, po measured daily for 7 days; type: organism-based; conditions: in vivo, 168 h, time 7 day
[13] = target: Cyclin-dependent kinase 8 (Homo sapiens) (UniProt P49336); assay: Binding affinity to CDK8 in human HCT-116 cells assessed as thermal stability at 49 degC treated for 4 hrs followed by compound washout by CETSA assay; type: cell-based; conditions: dose 0.5-10 µM, DDE = dose-dependent effect
Mus musculus [14] = assay: Anti-inflammatory activity in C57BL/6 mouse model of inflammatory bowel disease assessed as decrease in DSS-induced P38 phosphorylation in colon tissue at 5 to 20 mg/kg, po measured after 10 days by western blot analysis; type: functional, organism-based; conditions: dose 5-20 mg/kg, time 10.0 day, DDE = dose-dependent effect
[15] = Half life in Sprague-Dawley rat at 5 mg/kg, iv measured for 3 to 1440 mins by HPLC analysis; type: ADME, organism-based; conditions: in vivo, time 3-1440 min
Mus musculus [16] = assay: Anti-inflammatory activity in DSS-induced C57BL/6 mouse model of inflammatory bowel disease assessed as increase in colon length at 5 to 20 mg/kg, po daily measured after 10 days; type: functional, organism-based; conditions: dose 5-20 mg/kg, time 10.0 day
Mus musculus [17] = assay: Anti-inflammatory activity in C57BL/6 mouse model of inflammatory bowel disease assessed as decrease in DSS-induced neutrophil infiltration in colon tissue by measuring MPO activity at 5 to 20 mg/kg, po administered for 10 days; type: functional, organism-based; conditions: dose 5-20 mg/kg, time 10.0 day, DDE = dose-dependent effect
Mus musculus [18] = assay: Anti-inflammatory activity in C57BL/6 mouse model of inflammatory bowel disease assessed as reduction in DSS-induced epithelium destruction in colon tissue at 5 to 20 mg/kg, po daily measured after 10 days by hematoxylin and eosin staining based histopathological analysis; type: functional, organism-based; conditions: dose 5-20 mg/kg, time 10.0 day
[19] = Half life in Sprague-Dawley rat at 10 mg/kg, po measured for 3 to 1440 mins by HPLC analysis; type: ADME, organism-based; conditions: in vivo, time 3-1440 min
[20] = target: Cyclin-dependent kinase 8 (Homo sapiens) (UniProt P49336); assay: Binding affinity to CDK8 in human HCT-116 cells assessed as reduction in protease-induced CDK8 degradation at 1 to 4 uM treated for 6 hrs followed by protease treatment for 30 mins by western blot analysis; type: cell-based; conditions: dose 1-4 µM, time 390.0 min, DDE = dose-dependent effect
Mus musculus [21] = assay: Anti-inflammatory activity in C57BL/6 mouse model of inflammatory bowel disease assessed as increase in DSS-induced IL-10 levels in colon tissue administered orally daily measured after 10 days by ELISA method; type: functional, organism-based; conditions: dose 5-20 mg/kg, route po, time 10.0 day
BMDC [22] = assay: Inhibition of ERK phosphorylation in R848-stimulated mouse BMDC cells at 1 to 4 uM treated for 2 hrs followed by R848 stimulation for 12 hrs by western blot analysis; type: cell-based; conditions: dose 1-4 µM, time 14.0 hrs
Mus musculus [23] = assay: Anti-inflammatory activity in C57BL/6 mouse model of inflammatory bowel disease assessed as decrease in DSS-induced IL-6 levels in colon tissue at 5 to 20 mg/kg, po daily measured after 10 days by ELISA method; type: functional, organism-based; conditions: dose 5-20 mg/kg, time 10.0 day
Mus musculus [24] = assay: Anti-inflammatory activity in C57BL/6 mouse model of inflammatory bowel disease assessed as decrease in DSS-induced TNF-alpha levels in colon tissue at 5 to 20 mg/kg, po daily measured after 10 days by ELISA method; type: functional, organism-based; conditions: dose 5-20 mg/kg, time 10.0 day

Sequence of Cyclin-dependent kinase 8 (Homo sapiens) (P49336 whole entry): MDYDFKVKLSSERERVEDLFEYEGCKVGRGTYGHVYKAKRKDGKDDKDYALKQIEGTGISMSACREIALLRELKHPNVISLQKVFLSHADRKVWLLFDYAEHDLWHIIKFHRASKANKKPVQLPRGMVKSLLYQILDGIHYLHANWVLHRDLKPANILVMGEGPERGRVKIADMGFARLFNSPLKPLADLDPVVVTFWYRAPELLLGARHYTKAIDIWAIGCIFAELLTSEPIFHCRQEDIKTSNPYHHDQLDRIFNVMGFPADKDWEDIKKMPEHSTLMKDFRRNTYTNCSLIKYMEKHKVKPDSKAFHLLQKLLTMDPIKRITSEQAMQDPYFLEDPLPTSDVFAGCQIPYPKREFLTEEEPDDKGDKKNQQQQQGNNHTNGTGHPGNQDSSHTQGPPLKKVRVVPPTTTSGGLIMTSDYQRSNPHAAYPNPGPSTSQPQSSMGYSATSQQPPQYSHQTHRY
Sequence of CDK8/Cyclin C (P49336 whole entry): as above
Sequence of CDK8/Cyclin C (P24863 whole entry, further chain): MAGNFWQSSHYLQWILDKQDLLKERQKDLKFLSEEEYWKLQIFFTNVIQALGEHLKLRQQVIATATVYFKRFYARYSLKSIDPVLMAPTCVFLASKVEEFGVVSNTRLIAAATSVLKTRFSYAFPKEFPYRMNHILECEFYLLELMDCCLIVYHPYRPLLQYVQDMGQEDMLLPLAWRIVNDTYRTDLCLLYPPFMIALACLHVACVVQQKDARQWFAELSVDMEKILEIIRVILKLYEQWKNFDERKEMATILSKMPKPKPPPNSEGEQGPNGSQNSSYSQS
Sequence of c-Jun N-terminal kinase (Mus musculus) (Q61831 whole entry, looked up): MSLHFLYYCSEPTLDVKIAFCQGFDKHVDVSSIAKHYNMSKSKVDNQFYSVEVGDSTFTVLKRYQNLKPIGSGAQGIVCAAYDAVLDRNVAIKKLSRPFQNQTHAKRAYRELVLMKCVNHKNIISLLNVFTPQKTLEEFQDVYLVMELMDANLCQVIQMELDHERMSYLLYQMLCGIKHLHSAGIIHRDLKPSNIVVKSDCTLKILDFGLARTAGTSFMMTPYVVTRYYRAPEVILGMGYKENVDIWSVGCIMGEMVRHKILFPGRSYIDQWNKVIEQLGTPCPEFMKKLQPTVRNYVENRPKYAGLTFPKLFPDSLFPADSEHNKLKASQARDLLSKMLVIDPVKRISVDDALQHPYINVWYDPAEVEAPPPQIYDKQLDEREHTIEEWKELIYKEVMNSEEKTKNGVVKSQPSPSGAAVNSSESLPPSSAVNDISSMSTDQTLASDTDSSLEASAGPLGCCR
Sequence of c-Jun N-terminal kinase (Mus musculus) (Q91Y86 whole entry, looked up): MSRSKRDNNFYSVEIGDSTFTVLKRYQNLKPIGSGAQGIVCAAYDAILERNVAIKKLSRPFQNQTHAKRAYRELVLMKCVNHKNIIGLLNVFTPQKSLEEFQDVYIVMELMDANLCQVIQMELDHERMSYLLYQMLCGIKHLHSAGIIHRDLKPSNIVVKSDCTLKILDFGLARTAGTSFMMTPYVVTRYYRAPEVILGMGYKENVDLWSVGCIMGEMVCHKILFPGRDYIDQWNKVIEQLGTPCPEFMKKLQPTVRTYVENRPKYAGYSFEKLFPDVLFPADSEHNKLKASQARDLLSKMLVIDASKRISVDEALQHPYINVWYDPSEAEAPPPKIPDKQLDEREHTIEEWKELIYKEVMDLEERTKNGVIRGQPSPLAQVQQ
Sequence of c-Jun N-terminal kinase (Mus musculus) (Q9WTU6 whole entry, looked up): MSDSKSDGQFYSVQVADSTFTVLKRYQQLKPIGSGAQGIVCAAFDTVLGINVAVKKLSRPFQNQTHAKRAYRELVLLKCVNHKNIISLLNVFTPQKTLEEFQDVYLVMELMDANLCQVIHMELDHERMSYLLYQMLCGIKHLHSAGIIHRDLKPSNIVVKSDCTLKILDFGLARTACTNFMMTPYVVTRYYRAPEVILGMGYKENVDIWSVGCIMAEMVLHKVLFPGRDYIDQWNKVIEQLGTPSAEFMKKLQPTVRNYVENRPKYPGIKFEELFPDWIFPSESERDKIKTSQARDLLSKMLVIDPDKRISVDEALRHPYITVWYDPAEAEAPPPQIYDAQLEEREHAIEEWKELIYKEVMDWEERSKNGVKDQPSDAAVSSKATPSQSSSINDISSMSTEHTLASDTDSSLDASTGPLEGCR

CCc1ccccc1NC(=O)c1cncc(-c2ccc(C(=O)N3CCNCC3)cc2)c1
0.528 µg/mL: Cmax [8]
0.056 µM: IC50 (CDK8/Cyclin C)
2.18 h: half-life [19]
1.97 h: MRT [2]
1.83 h: half-life [15]
active: Activity (Mus musculus [1]) | Activity (BMDC [3]) | Activity (Mus musculus [4]) | inhibition [5] | Activity (Mus musculus [6]) | inhibition [7] | Activity (Mus musculus [9]) Dde | inhibition [11] | Activity [13] Dde | Activity (Mus musculus [14]) Dde | Activity (Mus musculus [16]) | Activity (Mus musculus [17]) Dde | Activity (Mus musculus [18]) | Activity [20] Dde | Activity (Mus musculus [21]) | inhibition (BMDC [22]) | Activity (Mus musculus [23]) | Activity (Mus musculus [24])
Non-Toxic: Activity [10] | Activity [12]
